The target of data set [1] is T1, DA receptors in the brain (Rattus norvegicus, UniProt P61169).
T1 construct: from tissue; host or cells: brain of live male Sprague-Dawley rats (in vivo behavioural test)
The experiment in a line: Block of apomorphine-induced stereotypies in the rat (0-3 scale). It is filed as in vivo, Male Sprague-Dawley rats. On the procedure: There are presently several techniques available to study DA receptor blockage in the brain in vico. One method is based on the ability of antipsychotic drugs to block the behavioural effects induced by the DA agonist apomorphine in the rat.
Directly after injection, the animals were placed in the cages, one in each cage. Scoring of the stereotypies were performed by two separate methods. […] The strength of the stereotype was scored on a 0-3 scale as follows:
3 Continous sniffing. Chewing, biting and licking.
In the second system the number of animals displaying hyperactivity caused by apomorphine were scored. Each group consisted of 6-8 animals. Saline controls were always run simultaneously. […] The ED50 were calculated from log dose-response curves by the method of least squares from 4-6 dose levels with 6-8 animals per dose level.

In data set [2] the test system is DA receptors in the brain. The experiment in a line: Block of apomorphine-induced hyperactivity in the rat. It is filed as in vivo, Male Sprague-Dawley rats. The conditions noted are these: for potency to block apomorphine, ED50 Hyperactivity: p.o., rat; for Block of apomorphine ED50, hyperactivity: i.p., 60 min prior to apomorphine HCl 1 mg/kg s.c. An excerpt:
There are presently several techniques available to study DA receptor blockage in the brain in vico. One method is based on the ability of antipsychotic drugs to block the behavioural effects induced by the DA agonist apomorphine in the rat. […] The stereotypies (chewing, […], biting) appear mainly to be induced via activation of DA receptors linked to the neostriatal DA system (J. Psychiat. […] Directly after injection, the animals were placed in the cages, one in each cage. Scoring of the stereotypies were performed by two separate methods. […] The strength of the stereotype was scored on a 0-3 scale as follows: In the second system the number of animals displaying hyperactivity caused by apomorphine were scored. Each group consisted of 6-8 animals. Saline controls were always run simultaneously.

For data set [3] the following is noted: experimental animals; cited from earlier work.
The conditions of data set [4]: in vivo; cited from earlier work.
[5] abbreviates: po, rat, read-out: potency to block apomorphine, ED50 Stereotypies.
[6] abbreviates: rat, ip, 60 min prior to apomorphine HCl 1 mg/kg s.c., read-out: Block of apomorphine ED50, stereotypes.

The source of these data is patent publication US4789683A, “Benzamido-derivatives” (priority 1981, dated 1988).

Where two headings read alike, the source gives them in different places.

T1 sequence (P61169 whole entry): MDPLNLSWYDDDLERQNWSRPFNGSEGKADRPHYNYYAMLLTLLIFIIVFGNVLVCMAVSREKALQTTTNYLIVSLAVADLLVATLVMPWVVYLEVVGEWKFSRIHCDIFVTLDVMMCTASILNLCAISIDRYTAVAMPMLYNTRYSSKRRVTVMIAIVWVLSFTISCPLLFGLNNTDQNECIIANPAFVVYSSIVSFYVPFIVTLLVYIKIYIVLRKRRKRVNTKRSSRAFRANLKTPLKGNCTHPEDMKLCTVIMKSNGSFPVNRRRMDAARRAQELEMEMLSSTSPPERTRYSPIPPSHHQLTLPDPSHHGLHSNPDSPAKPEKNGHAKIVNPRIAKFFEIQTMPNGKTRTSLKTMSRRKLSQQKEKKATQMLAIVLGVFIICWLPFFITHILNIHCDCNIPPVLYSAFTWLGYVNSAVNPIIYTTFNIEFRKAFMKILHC

Broadly, the ED50 is the dose that gives a 50% effect, or the effect in half of the subjects. With `CCOc1ccc(Br)c(O)c1C(=O)NCC1CCCN1CC` (single isomer, unassigned) [901(-)], the ED50 in data set [1] (setting [5]) stood at 34 µmol/kg. Further, the “potency to block apomorphine, ED50 Hyperactivity” value (“potency to block apomorphine” for short) in data set [2] came to 3.0 µmol/kg.
`CCN1CCCC1CNC(=O)c1c(O)c(Br)cc(Br)c1OC` (single isomer, unassigned) [FLA 659 (-)]: the ED50 turned out to be 12 µmol/kg in data set [1] (setting [5]) and 2.3 µmol/kg in data set [1] (setting [6]). Moreover, the “Block of apomorphine ED50, hyperactivity” value in data set [2] was found to be 0.40 µmol/kg. For the same molecule, the “potency to block apomorphine” value in data set [2] came out at 3.2 µmol/kg.
In the case of `CCN1CCCC1CNC(=O)c1c(OC)ccc(Br)c1O` (single isomer, unassigned) [FLA 797 (-)], the ED50 in data set [1] (setting [5]) is 22 µmol/kg. Moreover, the ED50 in data set [1] (setting [6]) was found to be 0.38 µmol/kg. For the same molecule, in data set [2], the “Block of apomorphine ED50, hyperactivity” value is 0.035 µmol/kg and the “potency to block apomorphine” value is 3 µmol/kg.
Take `CCN1CCCC1CNC(=O)c1c(OC)ccc(Cl)c1O` (single isomer, unassigned) [FLA 814 (-)]: the ED50 in data set [1] (setting [5]) came out at 25 µmol/kg. Moreover, the ED50 in data set [1] (setting [6]) is 1.1 µmol/kg. For the same molecule, in data set [2], the “Block of apomorphine ED50, hyperactivity” value worked out at 0.14 µmol/kg and the “potency to block apomorphine” value came to 4.4 µmol/kg.
For the molecule `CCN1CCCC1CNC(=O)c1c(O)c(Cl)cc(Cl)c1OC` (single isomer, unassigned) [FLA 870 (-)], the “Block of apomorphine ED50, stereotypes” value in data set [1] (i.p., 60 min prior to apomorphine HCl 1 mg/kg s.c.) worked out at 2.4 µmol/kg. The “Block of apomorphine ED50, hyperactivity” value in data set [2] came out at 0.11 µmol/kg.
With `CCCN1CCCC1CNC(=O)c1c(OC)ccc(Br)c1O` (single isomer, unassigned) [FLA 889 (-)], in data set [1] (setting [6]), the ED50 was found to be 0.75 µmol/kg. Besides, the “Block of apomorphine ED50, hyperactivity” value in data set [2] was found to be 0.27 µmol/kg.
For `CCN1CCCC1CNC(=O)c1c(OC)ccc(Br)c1O` (stereo not drawn) [FLA 797] the same measures were 1.1 µmol/kg and 0.22 µmol/kg.
For `CCOc1ccc(Br)c(O)c1C(=O)NCC1CCCN1CC` (stereo not drawn) [FLA 901] the same measures were 3.4 µmol/kg and 1.1 µmol/kg.
In the case of `CCN1CCCC1CNC(=O)c1c(OC)ccc(Br)c1OC(C)=O` (stereo not drawn) [FLA 903], in data set [1] (setting [6]), the ED50 was determined as 0.53 µmol/kg.
Consider `CCN1CCCC1CNC(=O)c1c(O)ccc(Br)c1OC` (stereo not drawn) [FLA 908], for which the ED50 in data set [1] (setting [6]) was found to be 10 µmol/kg. The “Block of apomorphine ED50, hyperactivity” value in data set [2] worked out at 1.1 µmol/kg.
As to `CCN1CCCC1CNC(=O)c1cc(S(N)(=O)=O)ccc1OC` (stereo not drawn) [Sulpiride, reference compound], the catalepsy result in data set [3] is “weak catalepsy”. For the same molecule, the “activity after oral administration” value in data set [1] (p.o., rat, apomorphine stereotypies and hyperactivity, in words) was “lost all activity”. Also, the ED50 in data set [1] (rat, ip, read-out: Block of apomorphine ED50, stereotypes) is 203 µmol/kg. Moreover, the “Block of apomorphine ED50, hyperactivity” value in data set [2] turned out to be 50 µmol/kg. The extrapyramidal side effects result in data set [4] is “weak extrapy ramidal side effects”.
